From patent US11524960B2, “Heterobicyclic inhibitors of MAT2A and methods of use for treating cancer” (AGIOS PHARMACEUTICALS, INC., priority 2018, dated 2022)

Each compound was assayed against T1, MAT2A homodimer (Homo sapiens, UniProt P31153) (assay: Biochemical assay: inhibition of MAT2A (phosphate release, PiColorLock Gold)). Details: MAT2A IC50 score; read-out: Enzyme Inhibition (Example 275).
T1 construct: inferred from Ni sepharose purification and imidazole elution; made in house; host or cells: Sf9 insect cells, recombinant baculovirus (Bac to Bac, pFASTBAC1)
T1 sequence (P31153 whole entry): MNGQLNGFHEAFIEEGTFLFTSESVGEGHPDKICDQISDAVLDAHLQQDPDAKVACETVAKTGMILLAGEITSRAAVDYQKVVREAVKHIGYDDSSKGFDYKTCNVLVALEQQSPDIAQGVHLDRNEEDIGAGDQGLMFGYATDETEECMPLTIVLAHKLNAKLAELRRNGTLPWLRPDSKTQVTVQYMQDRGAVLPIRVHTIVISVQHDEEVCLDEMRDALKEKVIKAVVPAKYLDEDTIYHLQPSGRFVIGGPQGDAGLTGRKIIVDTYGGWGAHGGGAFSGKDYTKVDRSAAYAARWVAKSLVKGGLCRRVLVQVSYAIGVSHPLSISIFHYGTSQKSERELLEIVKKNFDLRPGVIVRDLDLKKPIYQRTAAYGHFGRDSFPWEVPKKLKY
Description: Mat2A protein was expressed by recombinant baculovirus in SF9 infected cells using the Bac to Bac system cloned into the pFASTBAC1 vector (Invitrogen, Carlsbad, Calif.). Recombinant MAT2A was isolated from the cell lysate of 150 g of infected cells using HP Ni sepharose column chromatography. Recombinant MAT2A homodimer was eluted with 250 and 500 mM imidazole, and fractions containing MAT2A were identified by sodium dodecyl sulfate polyacrylamide gel electrophoresis and pooled.
For determination of the inhibitory potency of compounds against the MAT2A homodimer, protein was diluted to […] in assay buffer (50 mM Tris, pH 8.0, 50 mM KCl, 15 mM MgCl2, 0.3 mM EDTA, 0.005% [w/v] bovine serum albumin [BSA]). Test compound was prepared in 100% dimethyl sulfoxide (DMSO) at 50× the desired final concentration. […] of compound dilution was added to 40 μL of enzyme dilution and the mixture was allowed to equilibrate for 60 minutes at 25° C. The enzymatic assay was initiated by the addition of 10 μL of substrate mix (500 μM ATP, pH 7.0, 400 μM L-methionine in 1× assay buffer), and the mixture was incubated for a further 60 minutes at 25° C. The reaction was halted and the liberated phosphate released by the enzyme in stoichiometric amounts by the production of S-adenosyl methionine (SAM) was measured using the PiColorLock Gold kit (Innova Biosciences, UK). Absolute product amounts were determined by comparison to a standard curve of potassium phosphate buffer, pH 8.0.

| Structure (SMILES) | IC50 [nM] |
| --- | --- |
| COc1ccc(N2Cc3cnc(NCC4CC4)nc3C3(CCN(Cc4cn[nH]c4)C3)C2=O)cc1 (stereo not shown) [Example 102, 1′-((1H-pyrazol-4-yl)methyl)-2-((cyclopropylmethyl)amino)-6-(4-methoxyphenyl)-5H-spiro[pyrido[4,3-d]pyrimidine-8,3′-pyrrolidin]-7(6H)-one] | 1000 to 10000 |
| O=c1c(-c2ccc(OC(F)F)cc2)c2nc(N3CCC3)ncc2cn1-c1ccc2ncccc2c1 [Example 185, 2-(azetidin-1-yl)-8-(4-(difluoromethoxy)phenyl)-6-(quinolin-6-yl)pyrido[4,3-d]pyrimidin-7(6)-one] | 1000 to 10000 |
| O=c1c(-c2ccc(C3CC3)cc2)c2nc(NCC(F)(F)F)ncc2cn1-c1ccc2nc(C(F)(F)F)ccc2c1 [Example 163, 8-(4-cyclopropylphenyl)-2-((2,2,2-trifluoroethyl)amino)-6-(2-(trifluoromethyl)quinolin-6-yl)pyrido[4,3-d]pyrimidin-7(6H)-one] | 1000 to 10000 |
| O=C1N(c2cnoc2)Cc2cnc(NCC3CC3)nc2C12CCN(Cc1ccccc1F)C2 (stereo not shown) [Example 121, 2-((cyclopropylmethyl)amino)-1′-(2-fluorobenzyl)-6-(isoxazol-4-yl)-5,6-dihydro-7H-spiro[pyrido[4,3-d]pyrimidine-8,3′-pyrrolidin]-7-one] | 100 to 1000 |
| O=c1c(-c2ccc(OC(F)F)cc2)c2nc(OCC(F)(F)F)ncc2cn1-c1ccc2nc[nH]c2c1 [Example 266, 6-(H-benzo[d]imidazol-6-yl)-8-(4-(difluoromethoxy)phenyl)-2-(2,2,2-trifluoroethoxy)pyrido[4,3-d]pyrimidin-7(6H)-one] | 100 to 1000 |
| COc1ccc(N2Cc3cnc(SCC4CC4)nc3C3(CCN(Cc4cc[nH]n4)C3)C2=O)cc1 (stereo not shown) [Example 115, 1′-((1H-pyrazol-3-yl)methyl)-2-((cyclopropylmethyl)thio)-6-(4-methoxyphenyl)-5H-spiro[pyrido[4,3-d]pyrimidine-8,3′-pyrrolidin]-7(6H)-one] | 100 to 1000 |
| COc1ccc(-n2cc3cnc(NCC(F)(F)F)nc3c(-c3ccc(C(F)(F)F)cc3)c2=O)cc1 [Example 197, 6-(4-methoxyphenyl)-2-((2,2,2-trifluoroethyl)amino)-8-(4-(trifluoromethyl)phenyl)pyrido[4,3-d]pyrimidin-7(6H)-one] | 100 to 1000 |
| COc1ccc(N2Cc3cnc(NCC(F)(F)F)nc3C3(CCN(c4nnc(N)s4)CC3)C2=O)cc1 [Example 117, 1-(5-amino-1,3,4-thiadiazol-2-yl)-6′-(4-methoxyphenyl)-2′-((2,2,2-trifluoroethyl)amino)-5′H-spiro[piperidine-4,8′-pyrido[4,3-d]pyrimidin]-7′(6′H)-one] | 1000 to 10000 |
| COC(=O)C1CC(N2CCC3(C2)C(=O)N(c2ccc(OC)cc2)Cc2cnc(NCC4CC4)nc23)C1 (stereo not shown) [Example 105, methyl 3-(2-((cyclopropylmethyl)amino)-6-(4-methoxyphenyl)-7-oxo-6,7-dihydro-5H-spiro[pyrido[4,3-d]pyrimidine-8,3′-pyrrolidin]-1′-yl)cyclobutanecarboxylate] | 1000 to 10000 |
| COc1ccc(-n2cc3cnc(NCC(F)(F)F)nc3c(-c3ccc(C4CCC4)cc3)c2=O)cc1 [Example 199, 8-(4-cyclobutylphenyl)-6-(4-methoxyphenyl)-2-((2,2,2-trifluoroethyl)amino)pyrido[4,3-d]pyrimidin-7(6H)-one] | 1000 to 10000 |
| Cn1cc(-n2cc3cnc(NCC(F)(F)F)nc3c(-c3ccc(Cl)cc3)c2=O)ccc1=O [Example 140, 8-(4-chlorophenyl)-6-(1-methyl-6-oxo-1,6-dihydropyridin-3-yl)-2-((2,2,2-trifluoroethyl)amino)pyrido[4,3-d]pyrimidin-7(6H)-one] | 100 to 1000 |
| COc1ccc(-n2cc3cnc(NCC(F)(F)F)nc3c(-c3ccc(N4CCC4)cc3)c2=O)cc1 [Example 204, 8-(4-(azetidin-1-yl)phenyl)-6-(4-methoxyphenyl)-2-((2,2,2-trifluoroethyl)amino)pyrido[4,3-d]pyrimidin-7(6H)-one] | 100 to 1000 |
| O=C1N(c2cn[nH]c2)Cc2cnc(NCC3CC3)nc2C12CCN(Cc1ccccc1F)C2 (stereo not shown) [Example 122, 2-((cyclopropylmethyl)amino)-1′-(2-fluorobenzyl)-6-(1H-pyrazol-4-yl)-5,6-dihydro-7H-spiro[pyrido[4,3-d]pyrimidine-8,3′-pyrrolidin]-7-one] | 100 to 1000 |
| O=C1N(c2ccc3nc[nH]c3c2)Cc2cnc(NCC3CC3)nc2C12CCN(Cc1cc[nH]n1)C2 (stereo not shown) [Example 109, 1′-((H-pyrazol-3-yl)methyl)-6-(1H-benzo[d]imidazol-6-yl)-2-((cyclopropylmethyl)amino)-5H-spiro[pyrido[4,3-d]pyrimidine-8,3′-pyrrolidin]-7(6H)-one] | 100 to 1000 |
| COc1ccc(N2Cc3cnc(NCC4CC4)nc3C3(CCN(Cc4cscn4)C3)C2=O)cc1 (stereo not shown) [Example 103, 2-((cyclopropylmethyl)amino)-6-(4-methoxyphenyl)-1′-(thiazol-4-ylmethyl)-5H-spiro[pyrido[4,3-d]pyrimidine-8,3′-pyrrolidin]-7(6H)-one] | 100 to 1000 |

Continued, values first:

| IC50 [nM] | Structure (SMILES) |
| --- | --- |
| < 100 | O=c1c(-c2ccc(OC(F)F)cc2)c2nc(NCC(F)(F)F)ncc2cn1-c1ccc2nn(C3CC3)cc2c1 [Example 154, 6-(2-cyclopropyl-2H-indazol-5-yl)-8-(4-(difluoromethoxy)phenyl)-2-((2,2,2-trifluoroethyl)amino)pyrido[4,3-d]pyrimidin-7(6H)-one] |
| < 100 | COCc1ccc2cn(-c3ccc4nn(C)cc4c3)c(=O)c(-c3ccc(Cl)cc3)c2n1 [Example 136-A, 8-(4-chlorophenyl)-2-(methoxymethyl)-6-(2-methyl-2H-indazol-5-yl)-1,6-naphthyridin-7(6H)-one] |
| 100 to 1000 | COc1ccc(N2Cc3cnc(NCC(C)C)nc3C3(CCN(Cc4cc[nH]n4)C3)C2=O)cc1 (stereo not shown) [Example 113, 1′-((1H-pyrazol-3-yl)methyl)-2-(isobutylamino)-6-(4-methoxyphenyl)-5H-spiro[pyrido[4,3-d]pyrimidine-8,3′-pyrrolidin]-7(6H)-one] |
| 100 to 1000 | COc1ccc(N2Cc3cnc(NCC4CC4)nc3C3(CCN(Cc4cc[nH]n4)C3)C2=O)cc1 (stereo not shown) [Example 101, 1′-((1H-pyrazol-3-yl)methyl)-2-((cyclopropylmethyl)amino)-6-(4-methoxyphenyl)-5H-spiro[pyrido[4,3-d]pyrimidine-8,3′-pyrrolidin]-7(6H)-one] |
| < 100 | CC(C)n1cnc2ccc(-n3cc4cnc(NCC(F)(F)F)nc4c(-c4ccc(Cl)cc4)c3=O)cc21 [Example 128, 8-(4-chlorophenyl)-6-(1-isopropyl-1H-benzo[d]imidazol-6-yl)-2-(2,2,2-trifluoroethylamino)pyrido[4,3-d]pyrimidin-7(6H)-one] |
| < 100 | O=c1c(-c2ccc(Cl)cc2)c2nc(NCC(F)(F)F)ncc2cn1-c1ccc2nnccc2c1 [Example 131, 8-(4-chlorophenyl)-6-(cinnolin-6-yl)-2-(2,2,2-trifluoroethylamino)pyrido[4,3-d]pyrimidin-7(6)-one] |
| < 100 | Cc1nc2cc(-n3cc4cnc(NCC(F)(F)F)nc4c(-c4ccc(OC(F)F)cc4)c3=O)ccc2o1 [Example 149, 8-(4-(difluoromethoxy)phenyl)-6-(2-methylbenzo[d]oxazol-5-yl)-2-((2,2,2-trifluoroethyl)amino)pyrido[4,3-d]pyrimidin-7(6H)-one] |
| < 100 | COc1ccc(-n2cc3ccc(NCC(F)(F)F)nc3c(-c3ccc(Cl)cc3)c2=O)cc1 [Example 238, 8-(4-chlorophenyl)-6-(4-methoxyphenyl)-2-(2,2,2-trifluoroethylamino)-1,6-naphthyridin-7(6H)-one] |
| < 100 | O=c1c(-c2ccc(OC(F)F)cc2)c2nc(SCC(F)(F)F)ncc2cn1-c1ccc2ncccc2c1 [Example 274, 8-(4-(difluoromethoxy)phenyl)-6-(quinolin-6-yl)-2-(2,2,2-trifluoroethylthio)pyrido[4,3-d]pyrimidin-7(6H)-one] |
| 100 to 1000 | COc1ccc(-c2c(=O)n(-c3ccncc3)cc3cnc(NCC(F)(F)F)nc23)cc1 [Example 176, 8-(4-methoxyphenyl)-6-(pyridin-4-yl)-2-((2,2,2-trifluoroethyl)amino)pyrido[4,3-d]pyrimidin-7(6H)-one] |
| < 100 | Cn1cc2cc(-n3cc4cnc(NC5CCC5)nc4c(-c4ccc(OC(F)F)cc4)c3=O)ccc2n1 [Example 174, 2-(cyclobutylamino)-8-(4-(difluoromethoxy)phenyl)-6-(2-methyl-2H-indazol-5-yl)pyrido[4,3-d]pyrimidin-7(6H)-one] |
| < 100 | Cc1ccc2cc(-n3cc4cnc(NCC(F)(F)F)nc4c(-c4ccc(C5CC5)cc4)c3=O)ccc2n1 [Example 162, 8-(4-cyclopropylphenyl)-6-(2-methylquinolin-6-yl)-2-((2,2,2-trifluoroethyl)amino)pyrido[4,3-d]pyrimidin-7(6H)-one] |
| < 100 | CCOc1ncc2cn(-c3ccc4ncccc4c3)c(=O)c(-c3ccc(OC(F)F)cc3)c2n1 [Example 271, 8-(4-(difluoromethoxy)phenyl)-2-ethoxy-6-(quinolin-6-yl)pyrido[4,3-d]pyrimidin-7(6H)-one] |
